{"source": "patent US7883889B2", "about": "“Antigen presenting cells, method for their preparation and their use for cancer vaccines” (priority 2001, dated 2011)", "key": {"[1]": {"system": "PWM-activated B-Lymphocytes", "test": "RT-PCR analysis of CTA expressed by ADHAPI-Cells/PWM-B and control PWM-B cells", "format": "cell-based, human", "details": "5-AZA-CdR: four pulses of 1 μM every 12 h, then 48 h culture (= ADHAPI-Cells/PWM-B)", "procedure": "(§1) Experimental conditions and primers utilized to assess CTA expression on investigated cells were as follows:\nPurified B-Lymphocytes (1.5×10^6 cells/ml) were added with PWM (3 μg/ml) and cultured for 48 h at 37° C. in a 5% CO2 humidified atmosphere in Basal Iscove's medium supplemented with 10% heat-inactivated human AB serum, 2 mM L-glutamine, 100 U/ml penicillin, 100 μg/ml streptomycin sulphate.\n(§2) PWM-activated B-Lymphocytes were pulsed four times with 1 μM 5-aza-2′-deoxycytidine (5-AZA-CdR) every 12 h; then, half of the culture medium was replaced with fresh medium and cultures were allowed to proceed for additional 48 h. Then cells were utilized for experimental procedures and/or frozen under viable conditions. Control cells (PWM-B) were cultured under similar experimental conditions but without pulses of 5-AZA-CdR."}, "PHA-activated PBMC": {"system": "PHA-activated PBMC", "test": "RT-PCR analysis of CTA expressed by ADHAPI-Cells/PHA-PBMC and control PHA-PBMC", "format": "cell-based, human", "details": "5-AZA-CdR: four pulses of 1 μM every 12 h, then 48 h culture (= ADHAPI-Cells/PHA-PBMC)", "procedure": "as §1\nPBMC (1.5×10^6 cells/ml) were added with PHA-M (10 μg/ml) and 100 UI/ml rhIL-2, and cultured for 48 h at 37° C. in a 5% CO2 humidified atmosphere in RPMI 1640 medium supplemented with 10% heat-inactivated foetal calf serum (or in Basal Iscove's medium supplemented with 10% heat-inactivated human AB serum), 2 mM L-glutamine, 100 U/ml penicillin, 100 μg/ml streptomycin sulphate (complete medium).\n(§3) PHA-activated PBMC were pulsed four times with 1 μM 5-aza-2′-deoxycytidine (5-AZA-CdR) every 12 h; then, half of the culture medium was replaced with fresh complete medium without PHA-M and cultures were allowed to proceed for additional 48 h. Then cells were utilized for experimental procedures and/or frozen under viable conditions. Control cells (PHA-PBMC) were cultured under similar experimental conditions but without pulses of 5-AZA-CdR."}, "PHA+PWM-activated PBMC": {"system": "PHA+PWM-activated PBMC", "test": "RT-PCR analysis of CTA expressed by ADHAPI-Cells/PHA+PWM-PBMC and control PHA+PWM-PBMC", "format": "cell-based, human", "details": "5-AZA-CdR: four pulses of 1 μM every 12 h, then 48 h culture (= ADHAPI-Cells/PHA+PWM-PBMC)", "procedure": "as §1\nPBMC (1.5×10^6 cells/ml) were added with PHA-M (10 μg/ml), PWM (3 μg/ml), 100 UI/ml rhIL-2 and cultured for 48 h at 37° C. in a 5% CO2 humidified atmosphere in Basal Iscove's medium supplemented with 10% heat-inactivated human AB serum (or with 10% heat-inactivated autologous serum), 2 mM L-glutamine, 100 U/ml penicillin, 100 μg/ml streptomycin sulphate (complete medium).\nas §3, with “PHA+PWM-activated” for “PHA-activated”, “PHA or PWM” for “PHA-M”, “(PHA+PWM-PBMC)” for “(PHA-PBMC)”"}, "[2]": {"system": "normal and malignant lymphoid cells", "details": "Shichijo S. et al Jpn. J. Cancer Res. 87, 751-756, 1996; cited from earlier work"}, "PWM-activated PBMC": {"system": "PWM-activated PBMC", "test": "RT-PCR analysis of CTA expressed by ADHAPI-Cells/PWM-PBMC and control PWM-PBMC cells", "format": "cell-based, human", "details": "5-AZA-CdR: four pulses of 1 μM every 12 h, then 48 h culture (= ADHAPI-Cells/PWM-PBMC)", "procedure": "as §1\nPBMC (1.5×10^6 cells/ml) were added with PWM (3 μg/ml) and cultured for 48 h at 37° C. in a 5% CO2 humidified atmosphere in Basal Iscove's medium supplemented with 10% heat-inactivated human AB serum, 2 mM L-glutamine, 100 U/ml penicillin, 100 μg/ml streptomycin sulphate.\nas §2, with “PBMC” for “B-Lymphocytes”, “(PWM-PBMC)” for “(PWM-B)”"}, "[3]": {"system": "NIH3T3-CD40L-activated PBMC", "test": "RT-PCR analysis of CTA expressed by ADHAPI-Cells/CD40L-B and control CD40L-B cells", "format": "cell-based, human", "details": "5-AZA-CdR: four pulses of 1 μM every 12 h, restimulation with NIH3T3-CD40L, then 48 h (= ADHAPI-Cells/CD40L-B)", "procedure": "as §1\nPBMC (2×10^6 cells/ml) were co-cultured with semiconfluent, x-ray treated (75 Gy) NIH3T3-CD40L at 37° C. in a 5% CO2 humidified atmosphere, in Basal Iscove's medium supplemented with 10% heat-inactivated human AB serum, 2 mM L-glutamine, 2 ng/ml recombinant human (rh) interleukin 4 (rhIL-4), 50 μg/ml human transferrin, 5 μg/ml rh insulin, 5.5×10^−7 M cyclosporin A (CsA), 100 U/ml penicillin, and 100 μg/ml streptomycin sulphate (complete medium). After six days of incubation, PBMC were collected, washed twice with HBSS, resuspended at 1×10^6 cells/ml in complete medium and co-cultured for additional 3 days at 37° C. in a 5% CO2 humidified atmosphere with NIH3T3-CD40L freshly prepared as described above. This procedure was repeated every 2-3 days to a maximum culture time of 16-18 days.\nAfter 16-18 days of culture, activated PBMC were harvested and restimulated with NIH3T3-CD40L as described above; after an O/N incubation at 37° C. in a 5% CO2 humidified atmosphere, cultures were pulsed four times with 1 μM 5-aza-2′-deoxycytidine (5-AZA-CdR) every 12 h; then, cells were harvested and restimulated with NIH3T3-CD40L as described above and cultures were allowed to proceed for additional 48 h. Then cells were utilized for experimental procedures and/or frozen under viable conditions. Control cells (CD40L-B cells) were cultured under similar experimental conditions but without pulses of 5-AZA-CdR."}, "[4]": {"system": "B-EBV+ lymphoblastoid cell lines", "test": "RT-PCR analysis of CTA expressed by ADHAPI-Cells/B-EBV and control B-EBV cells", "format": "cell-based, human", "details": "5-AZA-CdR: four pulses of 1 μM every 12 h, then 48 h culture (= ADHAPI-Cells/B-EBV)", "procedure": "B-EBV+ lymphoblastoid cell lines (7.5×10^5 cells/ml) were cultured in RPMI 1640 medium supplemented with 10% heat-inactivated foetal calf serum (or 10% heat-inactivated human AB serum) and 2 mM L-glutamine at 37° C. in a 5% CO2 humidified atmosphere, and pulsed four times with 1 μM 5-aza-2′-deoxycytidine (5-AZA-CdR) every 12 h; then, half of the culture medium was replaced with fresh medium and cultures were allowed to proceed for additional 48 h. Then cells were utilized for experimental procedures and/or frozen under viable conditions. Control cells (B-EBV cells) were cultured under similar experimental conditions but without pulses of 5-AZA-CdR.\nExperimental conditions and primers utilized to assess CTA expression on investigated cells were as follows: […]"}}, "data": [{"smiles": "Nc1ncn([C@H]2C[C@H](O)[C@@H](CO)O2)c(=O)n1", "note": "[5-AZA-CdR, 5-aza-2′-deoxycytidine]", "values": [{"measurement": "GAGE-1-6 expression (RT-PCR)", "setting": "[1]", "result": "4/4"}, {"measurement": "MAGE-1 expression (RT-PCR)", "setting": "[1]", "result": "4/4"}, {"measurement": "MAGE-2 expression (RT-PCR)", "setting": "[1]", "result": "4/4"}, {"measurement": "MAGE-3 expression (RT-PCR)", "setting": "[1]", "result": "4/4"}, {"measurement": "MAGE-4 expression (RT-PCR)", "setting": "[1]", "result": "4/4"}, {"measurement": "NY-ESO-1 expression (RT-PCR)", "setting": "[1]", "result": "4/4"}, {"measurement": "SSX-2 expression (RT-PCR)", "setting": "[1]", "result": "4/4"}, {"measurement": "GAGE-1-6 expression (RT-PCR)", "setting": "PHA-activated PBMC", "result": "4/4"}, {"measurement": "MAGE-1 expression (RT-PCR)", "setting": "PHA-activated PBMC", "result": "12/12"}, {"measurement": "MAGE-2 expression (RT-PCR)", "setting": "PHA-activated PBMC", "result": "3/3"}, {"measurement": "MAGE-3 expression (RT-PCR)", "setting": "PHA-activated PBMC", "result": "12/12"}, {"measurement": "MAGE-4 expression (RT-PCR)", "setting": "PHA-activated PBMC", "result": "4/4"}, {"measurement": "NY-ESO-1 expression (RT-PCR)", "setting": "PHA-activated PBMC", "result": "6/6"}, {"measurement": "SSX-2 expression (RT-PCR)", "setting": "PHA-activated PBMC", "result": "6/6"}, {"measurement": "GAGE-1-6 expression (RT-PCR)", "setting": "PHA+PWM-activated PBMC", "result": "7/7"}, {"measurement": "MAGE-1 expression (RT-PCR)", "setting": "PHA+PWM-activated PBMC", "result": "7/7"}, {"measurement": "MAGE-2 expression (RT-PCR)", "setting": "PHA+PWM-activated PBMC", "result": "7/7"}, {"measurement": "MAGE-3 expression (RT-PCR)", "setting": "PHA+PWM-activated PBMC", "result": "7/7"}, {"measurement": "MAGE-4 expression (RT-PCR)", "setting": "PHA+PWM-activated PBMC", "result": "7/7"}, {"measurement": "NY-ESO-1 expression (RT-PCR)", "setting": "PHA+PWM-activated PBMC", "result": "7/7"}, {"measurement": "SSX-2 expression (RT-PCR)", "setting": "PHA+PWM-activated PBMC", "result": "7/7"}, {"measurement": "induction of MAGE 1, 2, 3 and 6", "setting": "[2]", "result": "induction of investigated CTA in selected samples tested"}, {"measurement": "GAGE-1-6 expression (RT-PCR)", "setting": "PWM-activated PBMC", "result": "3/4"}, {"measurement": "MAGE-1 expression (RT-PCR)", "setting": "PWM-activated PBMC", "result": "4/4"}, {"measurement": "MAGE-2 expression (RT-PCR)", "setting": "PWM-activated PBMC", "result": "3/4"}, {"measurement": "MAGE-3 expression (RT-PCR)", "setting": "PWM-activated PBMC", "result": "4/4"}, {"measurement": "MAGE-4 expression (RT-PCR)", "setting": "PWM-activated PBMC", "result": "3/4"}, {"measurement": "NY-ESO-1 expression (RT-PCR)", "setting": "PWM-activated PBMC", "result": "4/4"}, {"measurement": "SSX-2 expression (RT-PCR)", "setting": "PWM-activated PBMC", "result": "3/4"}, {"measurement": "GAGE-1-6 expression (RT-PCR)", "setting": "[3]", "result": "14/14"}, {"measurement": "MAGE-1 expression (RT-PCR)", "setting": "[3]", "result": "10/10"}, {"measurement": "MAGE-2 expression (RT-PCR)", "setting": "[3]", "result": "9/10"}, {"measurement": "MAGE-3 expression (RT-PCR)", "setting": "[3]", "result": "10/11"}, {"measurement": "MAGE-4 expression (RT-PCR)", "setting": "[3]", "result": "11/11"}, {"measurement": "NY-ESO-1 expression (RT-PCR)", "setting": "[3]", "result": "14/14"}, {"measurement": "SSX-2 expression (RT-PCR)", "setting": "[3]", "result": "13/14"}, {"measurement": "GAGE-1-6 expression (RT-PCR)", "setting": "[4]", "result": "4/4"}, {"measurement": "MAGE-1 expression (RT-PCR)", "setting": "[4]", "result": "4/4"}, {"measurement": "MAGE-3 expression (RT-PCR)", "setting": "[4]", "result": "4/4"}, {"measurement": "NY-ESO-1 expression (RT-PCR)", "setting": "[4]", "result": "4/4"}, {"measurement": "SSX-2 expression (RT-PCR)", "setting": "[4]", "result": "4/4"}]}]}
